Source: patent publication US7566712B2, “Biaryl piperazinyl-pyridine analogues” (Neurogen Corporation, priority 2003, dated 2009)

Each molecule was assayed against T1, human capsaicin receptor (Homo sapiens, UniProt Q8NER1) (assay: Calcium mobilization assay, determination of antagonist activity (Example 6)). Details: Table II; IC50 determined as described in Example 6 (antagonist activity, calcium mobilization).
T1 construct: pBK-CMV expression construct encoding the full length human capsaicin receptor; expressed in transfected cells
T1 sequence (Q8NER1 whole entry): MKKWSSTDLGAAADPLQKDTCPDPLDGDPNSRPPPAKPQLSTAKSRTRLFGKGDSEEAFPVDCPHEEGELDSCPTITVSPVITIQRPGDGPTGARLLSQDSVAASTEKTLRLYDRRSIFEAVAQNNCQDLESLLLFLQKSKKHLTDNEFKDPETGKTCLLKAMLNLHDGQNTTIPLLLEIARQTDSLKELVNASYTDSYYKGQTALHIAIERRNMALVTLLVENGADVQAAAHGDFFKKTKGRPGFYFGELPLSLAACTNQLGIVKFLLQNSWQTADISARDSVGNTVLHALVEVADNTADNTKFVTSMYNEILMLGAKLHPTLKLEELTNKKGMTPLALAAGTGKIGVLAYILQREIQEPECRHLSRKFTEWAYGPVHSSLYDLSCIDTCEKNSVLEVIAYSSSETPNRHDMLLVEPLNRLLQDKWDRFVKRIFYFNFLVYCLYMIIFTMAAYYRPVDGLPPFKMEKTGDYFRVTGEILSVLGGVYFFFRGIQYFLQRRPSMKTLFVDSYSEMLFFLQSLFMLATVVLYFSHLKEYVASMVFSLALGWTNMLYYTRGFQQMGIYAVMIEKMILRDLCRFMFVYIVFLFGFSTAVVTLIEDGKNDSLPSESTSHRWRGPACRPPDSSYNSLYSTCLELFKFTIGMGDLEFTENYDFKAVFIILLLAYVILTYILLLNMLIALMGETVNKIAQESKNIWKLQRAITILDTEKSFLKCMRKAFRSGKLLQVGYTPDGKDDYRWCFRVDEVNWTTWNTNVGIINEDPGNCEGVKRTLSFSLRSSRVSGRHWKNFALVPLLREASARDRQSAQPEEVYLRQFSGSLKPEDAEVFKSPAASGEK
Assay type: cell-based
How it was run: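 Antagonism measured as inhibition of capsaicin-evoked (final concentration = EC50, from an 8-point 1 nM–3 μM curve) Fluo-3 calcium signal in stable hVR1-HEK293 cells. Test compounds at 1–5 μM final, 0.5–6 h dark preincubation at room temperature. IC50 = concentration giving 50% reduction versus agonist-only response.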

IC50, ≤ 1 µM:
C[C@@H]1CCCN1c1nc(-c2ccc(F)c(Cl)c2)cc(N2CCN(c3nccnc3Cl)C[C@@H]2C)n1 [Example 973, 4-(3-chloro-4-fluorophenyl)-6-[(2S)-4-(3-chloropyrazin-2-yl)-2-methylpiperazin-1-yl]-2-[(2R)-2-methylpyrrolidin-1-yl]pyrimidine]
C[C@H]1CN(c2nccnc2Cl)CCN1c1cc(-c2ccc(F)c(Cl)c2)nc(N2CCCC2)n1 [Example 974, 4-(3-chloro-4-fluorophenyl)-6-[(2S)-4-(3-chloropyrazin-2-yl)-2-methylpiperazin-1-yl]-2-pyrrolidin-1-ylpyrimidine]
C[C@H]1CN(c2nccnc2Cl)CCN1c1cc(-c2ccc(F)c(Cl)c2)nc(N2CCOCC2)n1 [Example 975, 4-{4-(3-chloro-4-fluorophenyl)-6-[(2S)-4-(3-chloropyrazin-2-yl)-2-methylpiperazin-1-yl]pyrimidin-2-yl}morpholine]
Cc1ccc(-c2cc(N3CCN(c4nccnc4Cl)C[C@H]3C)nc(N3CCCC3)n2)cc1F [Example 978, 4-[(2R)-4-(3-chloropyrazin-2-yl)-2-methylpiperazin-1-yl]-6-(3-fluoro-4-methylphenyl)-2-pyrrolidin-1-ylpyrimidine]
Cc1ccc(-c2cc(N3CCN(c4ncccc4Cl)C[C@H]3C)nc(N3CCC[C@H]3C)n2)cc1F [Example 979, 4-[(2R)-4-(3-chloropyridin-2-yl)-2-methylpiperazin-1-yl]-6-(3-fluoro-4-methylphenyl)-2-[(2R)-2-methylpyrrolidin-1-yl]pyrimidine]
Cc1ccc(-c2cc(N3CCN(c4ncccc4Cl)C[C@H]3C)nc(N3CCOCC3)n2)cc1F [Example 980, 4-[4-[(2R)-4-(3-chloropyridin-2-yl)-2-methylpiperazin-1-yl]-6-(3-fluoro-4-methylphenyl)pyrimidin-2-yl]morpholine]
Cc1ccc(-c2cc(N3CCN(c4nccnc4Cl)C[C@H]3C)nc(N3CCC[C@H]3C)n2)cc1F [Example 981, 4-[(2R)-4-(3-chloropyrazin-2-yl)-2-methylpiperazin-1-yl]-6-(3-fluoro-4-methylphenyl)-2-[(2R)-2-methylpyrrolidin-1-yl]pyrimidine]
C[C@@H]1CN(c2ncccc2F)CCN1c1cc(-c2ccc(F)c(Cl)c2)nc(Cl)n1 [Example 983, 2-chloro-4-(3-chloro-4-fluorophenyl)-6-[(2R)-4-(3-fluoropyridin-2-yl)-2-methylpiperazin-1-yl]pyrimidine]
C[C@@H]1CN(c2ncccc2Cl)CCN1c1cc(-c2ccc(F)c(Cl)c2)nc(N2CCC[C@@H]2C)n1 [Example 984, 4-(3-chloro-4-fluorophenyl)-6-[(2R)-4-(3-chloropyridin-2-yl)-2-methylpiperazin-1-yl]-2-[(2S)-2-methylpyrroiidin-1-yl]pyrimidine]
C[C@H]1CN(c2ncccc2Cl)CCN1c1cc(-c2ccc(F)c(Cl)c2)nc(N2CCC[C@@H]2C)n1 [Example 985, 4-(3-chloro-4-fluorophenyl)-6-[(2S)-4-(3-chloropyridin-2-yl)-2-methylpiperazin-1-yl]-2-[(2S)-2-methylpyrrolidin-1-yl]pyrimidine]
C[C@@H]1CN(c2nccnc2Cl)CCN1c1cc(-c2ccc(F)c(Cl)c2)nc(N2CCC[C@@H]2C)n1 [Example 986, 4-(3-chloro-4-fluorophenyl)-6-[(2R)-4-(3-chloropyrazin-2-yl)-2-methylpiperazin-1-yl]-2-[(2S)-2-methylpyrrolidin-1-yl]pyrimidine]
C[C@H]1CN(c2nccnc2Cl)CCN1c1cc(-c2ccc(F)c(Cl)c2)nc(N2CCC[C@@H]2C)n1 [Example 987, 4-(3-chloro-4-fluorophenyl)-6-[(2S)-4-(3-chloropyrazin-2-yl)-2-methylpiperazin-1-yl]-2-[(2S)-2-methylpyrrolidin-1-yl]pyrimidine]
C[C@@H]1CN(c2ccccc2F)CCN1c1cc(-c2ccc(F)c(Cl)c2)nc(N2CCC[C@@H]2C)n1 [Example 989, 4-(3-chloro-4-fluorophenyl)-6-[(2R)-4-(2-fluorophenyl)-2-methylpiperazin-1-yl]-2-[(2S)-2-methylpyrrolidin-1-yl]pyrimidlne]
C[C@@H]1CN(c2ccccc2F)CCN1c1cc(-c2ccc(F)c(Cl)c2)nc(N2CCCC2)n1 [Example 990, 4-(3-chloro-4-fluorophenyl)-6-[(2R)-4-(2-fluorophenyl)-2-methylpiperazin-1-yl]-2-pyrrolidin-1-ylpyrimidine]
C[C@@H]1CN(c2ccccc2F)CCN1c1cc(-c2ccc(F)c(Cl)c2)nc(N2CCOCC2)n1 [Example 991, 4-{4-(3-chloro-4-fluorophenyl)-6-[(2R)-4-(2-fluorophenyl)-2-methylpiperazin-1-yl]pyrimidin-2-yl}morpholine]
Cc1ccc(-c2cc(N3CCN(c4nccnc4Cl)C[C@H]3C)nc(N3CCC[C@@H]3C)n2)cc1F [Example 992, 4-[(2R)-4-(3-chloropyrazin-2-yl)-2-methylpiperazin-1-yl]-6-(3-fluoro-4-methylphenyl)-2-[(2S)-2-methylpyrrolidin-1-yl]pyrimidine]
Cc1ccc(-c2cc(N3CCN(c4nccnc4Cl)C[C@H]3C)nc(N3CCOCC3)n2)cc1F [Example 993, 4-[4-[(2R)-4-(3-chloropyrazin-2-yl)-2-methylpiperazin-1-yl]-6-(3-fluoro-4-methylphenyl)pyrimidin-2-yl]morpholine]
Cc1ccc(-c2cc(N3CCN(c4ncccc4Cl)C[C@H]3C)nc(N3CCC[C@@H]3C)n2)cc1F [Example 994, 4-[(2R)-4-(3-chloropyridin-2-yl)-2-methylpiperazin-1-yl]-6-(3-fluoro-4-methylphenyl)-2-[(2S)-2-methylpyrrolidin-1-yl]pyrimidine]
C[C@@H]1CN(c2ncccc2C(F)(F)F)CCN1c1cc(-c2ccc(F)c(F)c2)nc(N2CCC[C@@H]2C)n1 [Example 995, 4-(3,4-difluorophenyl)-2-[(2S)-2-methylpyrrolidin-1-yl]-6-{(2R)-2-methyl-4-[3-(trifluoromethyl)pyridin-2-yl]piperazin-1-yl}pyrimidine]
CC1CCCN1c1nc(-c2ccc(F)c(Cl)c2)cc(N2CCN(c3ncccn3)CC2)n1 (stereo not drawn) [Example 996, 4-(3-chloro-4-fluorophenyl)-2-(2-methylpyrrolidin-1-yl)-6-(4-pyrimidin-2-ylpiperazin-1-yl)pyrimidine]
Cc1ccc(-c2cc(N3CCN(c4ncccc4Cl)C[C@H]3C)nc(N3CCCC3)n2)cc1Cl [Example 997, 4-(3-chloro-4-methylphenyl)-6-[(2R)-4-(3-chloropyridin-2-yl)-2-methylpiperazin-1-yl]-2-pyrrolidin-1-ylpyrimidine]
Cc1ccc(-c2cc(N3CCN(c4ncccc4Cl)C[C@H]3C)nc(N3CCOCC3)n2)cc1Cl [Example 998, 4-{4-(3-chloro-4-methylphenyl)-6-[(2R)-4-(3-chloropyridin-2-yl)-2-methylpiperazin-1-yl]pyrimidin-2-yl}morpholine]
Cc1ccc(-c2cc(N3CCN(c4ncccc4Cl)C[C@H]3C)nc(N3CCC[C@@H]3C)n2)cc1Cl [Example 999, 4-(3-ohloro-4-methylphenyl)-6-[(2R)-4-(3-chloropyridin-2-yl)-2-methylpiperazin-1-yl]-2-[(2S)-2-methylpyrrolidin-1-yl]pyrimidine]
C[C@@H]1CN(c2ncccc2Cl)CCN1c1cc(-c2ccc(F)c(Cl)c2)nc(N2CCOC[C@@H]2C)n1 [Example 1000, (3S)-4-{4-(3-ohloro-4-fluorophenyl)-6-[(2R)-4-(3-chloropyridin-2-yl)-2-methylpiperazin-1-yl]pyrimidin-2-yl}-3-methylmorpholine]
Cc1ccnnc1N1CCN(c2cc(-c3ccc(F)c(Cl)c3)nc(N3CCCC3C)n2)CC1 (stereo not drawn) [Example 1001, 3-{4-[6-(3-ohloro-4-fluorophenyl)-2-(2-methylpyrrolidin-1-yl)pyrimidin-4-yl]piperazin-1-yl}-4-methylpyridazine]
CC1CCCN1c1nc(-c2ccc(F)c(Cl)c2)cc(N2CCN(c3ncc(Br)cn3)CC2)n1 (stereo not drawn) [Example 1002, 4-[4-(5-bromopyrimidin-2-yl)piperazin-1-yl]-6-(3-chloro-4-fluorophenyl)-2-(2-methylpyrrolidin-1-yl)pyrimidine]
C[C@@H]1CN(c2nccnc2Cl)CCN1c1cc(-c2ccc(F)c(Cl)c2)nc(N2CCOC[C@@H]2C)n1 [Example 1003, (3S)-4-{4-(3-chloro-4-fluorophenyl)-6-[(2R)-4-(3-chloropyrazin-2-yl)-2-methylpiperazin-1-yl]pyrimidin-2-yl}-3-methylmorpholine]
C[C@@H]1CN(c2ncccc2F)CCN1c1cc(-c2ccc(F)c(Cl)c2)nc(N2CCOC[C@@H]2C)n1 [Example 1004, (3S)-4-{4-(3-chloro-4-fluorophenyl)-6-[(2R)-4-(3-fluoropyridin-2-yl)-2-methylpiperaztn-1-yl]pyrimidin-2-yl}-3-methylmorpholine]
C[C@H]1CN(c2ncccc2Cl)CCN1c1cc(-c2ccc(F)c(Cl)c2)nc(N2CCOC[C@@H]2C)n1 [Example 1005, (3S)-4-{4-(3-chloro-4-fluorophenyl)-6-[(2S)-4-(3-chloropyridin-2-yl)-2-methylpiperazin-1-yl]pyrimidin-2-yl}-3-methylmorpholine]
C[C@@H]1CN(c2ncccc2F)CCN1c1cc(-c2ccc(F)c(F)c2)nc(N2CCOC[C@@H]2C)n1 [Example 1006, (3S)-4-{4-(3,4-difluorophenyl)-6-[(2R)-4-(3-fluoropyridin-2-yl)-2-methylpiperazin-1-yl]pyrimidin-2-yl}-3-methylmorpholine]
